Results from article PMC11317636, “Convergent evolution in toxin detection and resistance provides evidence for conserved bacterial–fungal interactions” (Proceedings of the National Academy of Sciences of the …, 2024).

Key:
DnoP (PA4170) = molecular target: T1, DnoP (PA4170) (Pseudomonas aeruginosa, UniProt A0A0H2ZG54); test: DTNB assay of residual free thiols at […] nm; type: biochemical; settings: 40 µM TCEP-reduced substrate, 0.2 µM enzyme, 20 mM Tris-HCl pH 7.0, 100 mM NaCl, room temperature, 15 min
T1 construct: gene PA14_09950; one replicate with C-terminal mCherry fusion purified from A. fumigatus
T1 sequence (A0A0H2ZG54 entry or part of it): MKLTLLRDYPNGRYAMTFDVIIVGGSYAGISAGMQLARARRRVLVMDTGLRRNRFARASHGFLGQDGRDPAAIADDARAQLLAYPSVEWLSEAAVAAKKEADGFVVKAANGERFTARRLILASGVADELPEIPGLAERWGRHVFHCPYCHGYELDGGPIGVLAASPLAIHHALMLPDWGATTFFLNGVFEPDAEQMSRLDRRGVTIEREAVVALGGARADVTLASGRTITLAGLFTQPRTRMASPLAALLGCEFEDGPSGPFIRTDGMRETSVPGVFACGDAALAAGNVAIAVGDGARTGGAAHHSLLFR

GliT = molecular target: T2, GliT (Aspergillus fumigatus, UniProt E9RAH5); type: biochemical; settings: 40 µM TCEP-reduced substrate, 0.2 µM enzyme, 20 mM Tris-HCl pH 7.0, 100 mM NaCl, room temperature, 15 min
T2 construct: one replicate with C-terminal mCherry fusion purified from A. fumigatus (A1160 background)
T2 sequence (E9RAH5 whole entry, the tested form may be a part): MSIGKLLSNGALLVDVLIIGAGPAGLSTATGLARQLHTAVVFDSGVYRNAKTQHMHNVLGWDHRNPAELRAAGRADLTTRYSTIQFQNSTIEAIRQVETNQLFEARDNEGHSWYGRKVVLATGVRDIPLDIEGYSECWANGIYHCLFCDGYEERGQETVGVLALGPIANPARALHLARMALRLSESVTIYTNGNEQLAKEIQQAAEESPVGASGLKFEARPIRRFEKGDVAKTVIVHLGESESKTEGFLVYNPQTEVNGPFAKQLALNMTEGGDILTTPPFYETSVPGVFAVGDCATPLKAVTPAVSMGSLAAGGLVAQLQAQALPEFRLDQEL

CN1C(=O)C2(S)CC3=CC=CC(O)C3N2C(=O)C1(S)CO (centres unmarked) [compound 1, reduced gliotoxin]
DTNB assay of residual free thiols at 412 nm (DnoP (PA4170)): Recombinant PA4170 and GliT catalyzed disulfide oxidation of both gliotoxin and holomycin
DTNB assay of residual free thiols at 412 nm (GliT): Recombinant PA4170 and GliT catalyzed disulfide oxidation of both gliotoxin and holomycin
